Experimental data taken from US8546608B2, “Proteasome inhibitors and methods of using the same” (Cephalon, Inc., priority 2003, dated 2013).

molecular target: T1, 20S Human Erythrocyte Proteasome (HEP) (Homo sapiens, UniProt P20618+P28074); assay: Chymotrypsin-like activity of 20S Human Erythrocyte Proteasome (HEP), IC50 determination; type: biochemical; settings: assay of Example C, inhibition of HEP
T1 construct: 20S Human Erythrocyte Proteasome (HEP), purchased from Immatics Biotechnologies Inc; purchased Immatics Biotechnologies Inc., Tübingen, Germany; host or cells: human erythrocytes (natural source)
Description: Assay for Chymotrypsin-like Activity of 20S Human Erythrocyte Proteasome (HEP)
Proteasome chymotrypsin-like activity of compounds of the invention was assayed according to the following procedure.
In 96-well microtiter plates, 20S Human Erythrocyte Proteasome (HEP), purchased from Immatics Biotechnologies Inc., Tübingen, Germany was plated at 0.2 μg/mL (about 0.6 nM catalytic sites) in 0.04% SDS 20 mM Tris buffer. A fluorimetric substrate Suc-LLVY-AMC (succinyl-Leu-Leu-Val-Tyr-7-amido-4-methylcoumarin), purchased from Sigma Inc., St. Louis, Mo., USA was added to a final concentration of 100 μM from a stock solution of 10 mM in dimethylsulfoxide. Reaction volumes were 100 μl per well. […] Proteasome activity was determined under conditions in which substrate hydrolysis increased linearly with time and the change in fluorescence signal was proportional to the concentration of free AMC.
Determination of IC50 Values for HEP and α-Chymotrypsin Inhibitors
Inhibition of the chymotrypsin-like activity of HEP and of bovine α-chymotrypsin was determined by incubating the enzyme with various concentrations of putative inhibitors for 15 minutes at 37° C. (or room temperature for α-chymotrypsin) prior to the addition of substrate. Each experimental condition was evaluated in triplicate, and replicate experiments were performed for the inhibitors described herein.

Compound | IC50 [µM]
CCCCC(CC)CCC(=O)N[C@@H](CCCNC(=N)N[N+](=O)[O-])C(=O)N[C@@H](CC(C)C)B1O[C@@H]2C[C@@H]3C[C@@H](C3(C)C)[C@]2(C)O1 (mixture of isomers) [D.3.78, (RS)-4-Ethyloctanamide,N-[(1S)-1-[[[(1R)-1-[(3aS,4S,6S,7aR)-hexahydro-3a,5,5-trimethyl-4,6-methano-1,3,2-benzodioxaborol-2-yl]-3-methylbutyl]amino]carbonyl]-4-[[imino(nitroamino)methyl]amino]butyl]] | < 0.01
CCCCCCCC/C=C/C(=O)N[C@@H](CCCNC(=N)N[N+](=O)[O-])C(=O)N[C@@H](CC(C)C)B1O[C@@H]2C[C@@H]3C[C@@H](C3(C)C)[C@]2(C)O1 [D.3.69, (E)-Undec-2-enoic acid amide,N-[(1S)-1-[[[(1R)-1-[(3aS,4S,6S,7aR)-hexahydro-3a,5,5-trimethyl-4,6-methano-1,3,2-benzodioxaborol-2-yl]-3-methylbutyl]amino]carbonyl]-4-[[imino(nitroamino)methyl]amino]butyl]] | < 0.01
CC(C)C[C@H](NC(=O)[C@H](CCCNC(=N)N[N+](=O)[O-])NC(=O)CC1CC2CCC1C2)B1O[C@@H]2C[C@@H]3C[C@@H](C3(C)C)[C@]2(C)O1 (stereo partly drawn) [D.3.89, 2-(Bicyclo[2.2.1]hept-2-yl)acetamide,N-[(1S)-1-[[[(1R)-1-[(3aS,4S,6S,7aR)-hexahydro-3a,5,5-trimethyl-4,6-methano-1,3,2-benzodioxaborol-2-yl]-3-methylbutyl]amino]carbonyl]-4-[[imino(nitroamino)methyl]amino]butyl]] | < 0.01
CC(C)=CCC[C@H](C)CC(=O)N[C@@H](CCCNC(=N)N[N+](=O)[O-])C(=O)N[C@@H](CC(C)C)B1O[C@@H]2C[C@@H]3C[C@@H](C3(C)C)[C@]2(C)O1 [D.3.77, (3S)-3,7-Dimethyl-oct-6-enoic acid amide,N-[(1S)-1-[[[(1R)-1-[(3aS,4S,6S,7aR)-hexahydro-3a,5,5-trimethyl-4,6-methano-1,3,2-benzodioxaborol-2-yl]-3-methylbutyl]amino]carbonyl]-4-[[imino(nitroamino)methyl]amino]butyl]] | < 0.01
CC(C)C[C@H](NC(=O)[C@H](CCCNC(=N)N[N+](=O)[O-])NC(=O)CCCCc1cccs1)B1O[C@@H]2C[C@@H]3C[C@@H](C3(C)C)[C@]2(C)O1 [D.3.115, 5-Thiophen-2-yl-pentanamide,N-[(1S)-1-[[[(1R)-1-[(3aS,4S,6S,7aR)-hexahydro-3a,5,5-trimethyl-4,6-methano-1,3,2-benzodioxaborol-2-yl]-3-methylbutyl]amino]carbonyl]-4-[[imino(nitroamino)methyl]amino]butyl]] | < 0.01
CCCCC(C)CCC(=O)N[C@@H](CCCNC(=N)N[N+](=O)[O-])C(=O)N[C@@H](CC(C)C)B1O[C@@H]2C[C@@H]3C[C@@H](C3(C)C)[C@]2(C)O1 (mixture of isomers) [D.3.87, (RS)-4-Methyloctanamide,N-[(1S)-1-[[[(1R)-1-[(3aS,4S,6S,7aR)-hexahydro-3a,5,5-trimethyl-4,6-methano-1,3,2-benzodioxaborol-2-yl]-3-methylbutyl]amino]carbonyl]-4-[[imino(nitroamino)methyl]amino]butyl]] | < 0.01
CC(C)C[C@H](NC(=O)[C@H](CCCNC(=N)N[N+](=O)[O-])NC(=O)COc1ccc(Br)cc1)B1O[C@@H]2C[C@@H]3C[C@@H](C3(C)C)[C@]2(C)O1 [D.3.80, 2-(4-Bromophenoxy)-acetamide,N-[(1S)-1-[[[(1R)-1-[(3aS,4S,6S,7aR)-hexahydro-3a,5,5-trimethyl-4,6-methano-1,3,2-benzodioxaborol-2-yl]-3-methylbutyl]amino]carbonyl]-4-[[imino(nitroamino)methyl]amino]butyl]] | < 0.01
C=CCCCCCCCC(=O)N[C@@H](CCCNC(=N)N[N+](=O)[O-])C(=O)N[C@@H](CC(C)C)B1O[C@@H]2C[C@@H]3C[C@@H](C3(C)C)[C@]2(C)O1 [D.3.68, Dec-9-enamide,N-[(1S)-1-[[[(1R)-1-[(3aS,4S,6S,7aR)-hexahydro-3a,5,5-trimethyl-4,6-methano-1,3,2-benzodioxaborol-2-yl]-3-methylbutyl]amino]carbonyl]-4-[[imino(nitroamino)methyl]amino]butyl]] | < 0.01
Cc1ccc(CSCCC(=O)N[C@@H](CCCNC(=N)N[N+](=O)[O-])C(=O)N[C@@H](CC(C)C)B2O[C@@H]3C[C@@H]4C[C@@H](C4(C)C)[C@]3(C)O2)cc1 [D.3.76, 3-[(4-methylbenzyl)sulfanyl]propanamide,N-[(1S)-1-[[[(1R)-1-[(3aS,4S,6S,7aR)-hexahydro-3a,5,5-trimethyl-4,6-methano-1,3,2-benzodioxaborol-2-yl]-3-methylbutyl]amino]carbonyl]-4-[[imino(nitroamino)methyl]amino]butyl]] | < 0.01
CC(C)C[C@H](NC(=O)[C@H](CCCNC(=N)N[N+](=O)[O-])NC(=O)CN1CCCCC1)B1O[C@@H]2C[C@@H]3C[C@@H](C3(C)C)[C@]2(C)O1 [D.1.9, 2-Piperidin-1-yl-acetamide,N-[(1S)-1-[[[(1R)-1-[(3aS,4S,6S,7aR)-hexahydro-3a,5,5-trimethyl-4,6-methano-1,3,2-benzodioxaborol-2-yl]-3-methylbutyl]amino]carbonyl]-4-[[imino(nitroamino)methyl]amino]butyl]] | < 0.1

Other lines, results leading:

IC50 [µM] | Compound
< 0.01 | CCCCCCCc1ccc(C(=O)N[C@@H](CCCNC(=N)N[N+](=O)[O-])C(=O)N[C@@H](CC(C)C)B2O[C@@H]3C[C@@H]4C[C@@H](C4(C)C)[C@]3(C)O2)cc1 [D.3.130, 4-Heptylbenzamide,N-[(1S)-1-[[[(1R)-1-[(3aS,4S,6S,7aR)-hexahydro-3a,5,5-trimethyl-4,6-methano-1,3,2-benzodioxaborol-2-yl]-3-methylbutyl]amino]carbonyl]-4-[[imino(nitroamino)methyl]amino]butyl]]
< 0.01 | COC(=O)CCCC(=O)N[C@@H](CCCNC(=N)N[N+](=O)[O-])C(=O)N[C@@H](CC(C)C)B(O)O [E.1.10, Boronic acid, [(1R)-1-[[(2S)-5-[[imino(nitroamino)methyl]amino]-2-[[4-(methoxycarbonyl)butanoyl]amino]-1-oxopentyl]amino]-3-methylbutyl]]
< 0.01 | CCCCN1CCC(CCCC(=O)N[C@@H](CCCNC(=N)N[N+](=O)[O-])C(=O)N[C@@H](CC(C)C)B(O)O)CC1 [E.1.14, Boronic acid, [(1R)-1-[[(2S)-5-[[imino(nitroamino)methyl]amino]-2-[(1-oxo-4-(1-butylpiperidin-4-yl)butyl)amino]-1-oxopentyl]amino]-3-methylbutyl]]
< 0.01 | CCCCCCCCCC(=O)N[C@@H](CCCNC(=N)N[N+](=O)[O-])C(=O)N[C@@H](CC(C)C)B1O[C@H](C2CCCCC2)[C@@H](C2CCCCC2)O1 [F.1, Decanamide, N-[(1S)-1-[[[(1R)-1-[(4R,5R)-4,5-dicyclohexyl-[1,3,2]dioxaborolan-2-yl]-3-methylbutyl]amino]carbonyl]-4-[[imino(nitroamino)methyl]amino]butyl]-]
